{
  "source": "patent US20260355165A1",
  "about": "“2,3,4,9-TETRAHYDRO-1H-PYRIDO[3,4-B]INDOLE DERIVATIVES AS ESTROGEN RECEPTOR MODULATORS FOR THE TREATMENT OF CANCER” (Olema Pharmaceuticals, Inc., priority 2022, published 2026)",
  "target": "T1, estrogen receptor (Homo sapiens, UniProt P03372)",
  "T1 construct": "endogenous in cells; host or cells: ECC-1 cells",
  "T1 sequence (P03372 1-595)": "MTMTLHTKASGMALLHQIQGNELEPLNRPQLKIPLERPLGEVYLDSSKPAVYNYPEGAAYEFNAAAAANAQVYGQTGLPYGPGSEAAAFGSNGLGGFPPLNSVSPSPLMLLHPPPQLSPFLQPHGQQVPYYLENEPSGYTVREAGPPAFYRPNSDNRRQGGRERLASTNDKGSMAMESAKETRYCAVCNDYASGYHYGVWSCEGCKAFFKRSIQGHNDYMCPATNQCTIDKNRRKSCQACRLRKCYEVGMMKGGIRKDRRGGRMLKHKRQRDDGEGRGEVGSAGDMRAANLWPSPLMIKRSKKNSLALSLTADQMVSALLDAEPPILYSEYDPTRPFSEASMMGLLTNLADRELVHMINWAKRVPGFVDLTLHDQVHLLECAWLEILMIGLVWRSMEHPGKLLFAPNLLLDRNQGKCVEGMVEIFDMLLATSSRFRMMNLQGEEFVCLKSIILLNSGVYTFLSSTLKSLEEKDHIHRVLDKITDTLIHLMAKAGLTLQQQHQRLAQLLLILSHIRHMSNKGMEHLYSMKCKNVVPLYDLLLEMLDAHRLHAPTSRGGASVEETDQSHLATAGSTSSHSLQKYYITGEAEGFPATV",
  "test": "AP assay (alkaline phosphatase activity in ECC-1 cells), agonist mode (absence of E2) and antagonist mode (presence of 500 pM E2)",
  "type": "cell-based",
  "conditions": "for Activity (estrogen receptor modulation, e.g., agonism and antagonism): 3 days, AP activity normalized to 500 pM E2 alone, agonist and antagonist mode combined",
  "description": "ECC-1 cells were trypsinized and resuspended in hormone-depleted media and plated at a density of 15 k cells per well into a 96-well plate for at least 4 hours. Cells were treated with test compounds in the absence of E2 (for agonist mode) or in the presence of 500 pM E2 (for antagonist mode) for 3 days and plates were subsequently frozen at −80 °C. Thawed plates were incubated with a chromogenic substrate of AP, p-nitrophenyl phosphate (Thermo Fisher Scientific), for 40 minutes at 42 °C, and absorbances were read at 405 nm. AP activity was normalized to the activity of 500 pM E2 alone.\nThe compound numbers correspond to the compound numbers of Table 1 and 2. Compounds having an activity designated as “+” provided estrogen receptor agonism having (i) at least 80% increase in the E2-normalized signal in the AP assay (agonist mode) and (ii) no more than 80% reduction in the E2-normalized signal in the AP assay (antagonist mode). Compounds having an activity designated as “++” provided estrogen receptor antagonism having (i) between 10% and 80% increase in the E2-normalized signal in the AP assay (agonist mode) and (ii) between 10% and 80% reduction in the E2-normalized signal in the AP assay (antagonist mode).",
  "data": [
    {"smiles": "C[C@@H]1Cc2c([nH]c3ccccc23)[C@@H](c2ccc3oc(CN4CC(CF)C4)cc3c2)N1CC(C)(C)F", "note": "[Compound I-57, (1R,3R)-1-[2-[[3-(fluoromethyl)azetidin-1-yl]methyl]benzofuran-5-yl]-2-(2-fluoro-2-methyl-propyl)-3-methyl-1,3,4,9-tetrahydropyrido[3,4-b]indole]", "values": [
      {"measurement": "Activity (estrogen receptor modulation, e.g., agonism and antagonism)", "result": "+++ (estrogen receptor antagonism (i) with pIC50 greater than 7.5 and at least a 10% reduction in the E2-normalized signal in the AP assay (antagonist mode); and (ii) no more than 10% increase in E2-normalized signal in the AP assay (agonist mode))"}
    ]},
    {"smiles": "C[C@@H]1Cc2c([nH]c3ccccc23)[C@@H](c2n[nH]c3cc(CO)ccc23)N1CC(C)(C)F", "note": "[Compound I-2, [3-[(1S,3R)-2-(2-fluoro-2-methyl-propyl)-3-methyl-1,3,4,9-tetrahydropyrido[3,4-b]indol-1-yl]-1H-indazol-6-yl]methanol]", "values": [
      {"measurement": "Activity (estrogen receptor modulation, e.g., agonism and antagonism)", "result": "+ (estrogen receptor agonism having (i) at least 80% increase in the E2-normalized signal in the AP assay (agonist mode) and (ii) no more than 80% reduction in the E2-normalized signal in the AP assay (antagonist mode))"}
    ]},
    {"smiles": "C[C@@H]1Cc2c([nH]c3ccccc23)[C@@H](c2ccc3[nH]c(CN4CC(CF)C4)cc3c2)N1CC(F)(F)C(F)F", "note": "[Compound I-109, (1R,3R)-1-[2-[[3-(fluoromethyl)azetidin-1-yl]methyl]-1H-indol-5-yl]-3-methyl-2-(2,2,3,3-tetrafluoropropyl)-1,3,4,9-tetrahydropyrido[3,4-b]indole]", "values": [
      {"measurement": "IC50", "setting": "AP assay, antagonist mode, 500 pM E2, 3 days", "result": "< 398", "unit": "nM"},
      {"measurement": "increase in E2-normalized signal in the AP assay (agonist mode)", "setting": "agonist mode, absence of E2, 3 days", "result": "no more than 10%"},
      {"measurement": "reduction in the E2-normalized signal in the AP assay (antagonist mode)", "setting": "antagonist mode, 500 pM E2, 3 days", "result": "≥ 10", "unit": "%"}
    ]},
    {"smiles": "C[C@@H]1Cc2c([nH]c3ccccc23)[C@@H](c2ccc3[nH]c(CN4CC(C#N)C4)cc3c2)N1CC(C)(C)F", "note": "[Compound I-50, 1-[[5-[(1R,3R)-2-(2-fluoro-2-methyl-propyl)-3-methyl-1,3,4,9-tetrahydropyrido[3,4-b]indol-1-yl]-1H-indol-2-yl]methyl]azetidine-3-carbonitrile]", "values": [
      {"measurement": "Activity (estrogen receptor modulation, e.g., agonism and antagonism)", "result": "+ (estrogen receptor agonism having (i) at least 80% increase in the E2-normalized signal in the AP assay (agonist mode) and (ii) no more than 80% reduction in the E2-normalized signal in the AP assay (antagonist mode))"}
    ]},
    {"smiles": "C[C@@H]1Cc2c([nH]c3ccccc23)[C@@H](c2ccc3oc(CN4CC(CF)C4)nc3c2)N1CC(C)(C)F", "note": "[Compound I-75, 2-[[3-(fluoromethyl)azetidin-1-yl]methyl]-5-[(1R,3R)-2-(2-fluoro-2-methyl-propyl)-3-methyl-1,3,4,9-tetrahydropyrido[3,4-b]indol-1-yl]-1,3-benzoxazole]", "values": [
      {"measurement": "Activity (estrogen receptor modulation, e.g., agonism and antagonism)", "result": "+++ (estrogen receptor antagonism (i) with pIC50 greater than 7.5 and at least a 10% reduction in the E2-normalized signal in the AP assay (antagonist mode); and (ii) no more than 10% increase in E2-normalized signal in the AP assay (agonist mode))"}
    ]},
    {"smiles": "C[C@@H]1Cc2c([nH]c3ccccc23)[C@@H](c2ccc3[nH]c(CN4CC(CF)C4)cc3c2)N1CC(C)(C)F", "note": "[Compound I-40, (1R,3R)-1-[2-[[3-(fluoromethyl)azetidin-1-yl]methyl]-1H-indol-5-yl]-2-(2-fluoro-2-methyl-propyl)-3-methyl-1,3,4,9-tetrahydropyrido[3,4-b]indole]", "values": [
      {"measurement": "Activity (estrogen receptor modulation, e.g., agonism and antagonism)", "result": "+++ (estrogen receptor antagonism (i) with pIC50 greater than 7.5 and at least a 10% reduction in the E2-normalized signal in the AP assay (antagonist mode); and (ii) no more than 10% increase in E2-normalized signal in the AP assay (agonist mode))"}
    ]},
    {"smiles": "CC1CN(Cc2nc3cc([C@@H]4c5[nH]c6ccccc6c5C[C@@H](C)N4CC(C)(C)F)ccc3o2)C1", "note": "[Compound I-76, 5-[(1R,3R)-2-(2-fluoro-2-methyl-propyl)-3-methyl-1,3,4,9-tetrahydropyrido[3,4-b]indol-1-yl]-2-[(3-methylazetidin-1-yl)methyl]-1,3-benzoxazole]", "values": [
      {"measurement": "Activity (estrogen receptor modulation, e.g., agonism and antagonism)", "result": "+++ (estrogen receptor antagonism (i) with pIC50 greater than 7.5 and at least a 10% reduction in the E2-normalized signal in the AP assay (antagonist mode); and (ii) no more than 10% increase in E2-normalized signal in the AP assay (agonist mode))"}
    ]},
    {"smiles": "C[C@@H]1Cc2c([nH]c3ccccc23)[C@@H](c2ccc3[nH]c(CN4CC5(CC(O)C5)C4)cc3c2)N1CC(C)(C)F", "note": "[Compound I-53, 2-[[5-[(1R,3R)-2-(2-fluoro-2-methyl-propyl)-3-methyl-1,3,4,9-tetrahydropyrido[3,4-b]indol-1-yl]-1H-indol-2-yl]methyl]-2-azaspiro[3.3]heptan-6-ol]", "values": [
      {"measurement": "Activity (estrogen receptor modulation, e.g., agonism and antagonism)", "result": "+ (estrogen receptor agonism having (i) at least 80% increase in the E2-normalized signal in the AP assay (agonist mode) and (ii) no more than 80% reduction in the E2-normalized signal in the AP assay (antagonist mode))"}
    ]},
    {"smiles": "C[C@@H]1Cc2c([nH]c3ccccc23)[C@@H](c2cc3[nH]c(C(=O)O)cc3s2)N1CC(C)(C)F.N", "note": "[Compound I-65, ammonium; 2-[(1S,3R)-2-(2-fluoro-2-methyl-propyl)-3-methyl-1,3,4,9-tetrahydropyrido[3,4-b]indol-1-yl]-4H-thieno[3,2-b]pyrrole-5-carboxylate]", "values": [
      {"measurement": "Activity (estrogen receptor modulation, e.g., agonism and antagonism)", "result": "++ (estrogen receptor antagonism having (i) between 10% and 80% increase in the E2-normalized signal in the AP assay (agonist mode) and (ii) between 10% and 80% reduction in the E2-normalized signal in the AP assay (antagonist mode))"}
    ]},
    {"smiles": "CC1CN(Cc2cc3cc([C@@H]4c5[nH]c6ccccc6c5C[C@@H](C)N4CC(F)(F)CO)ccc3[nH]2)C1", "note": "[Compound I-46, 2,2-difluoro-3-[(1R,3R)-3-methyl-1-[2-[(3-methylazetidin-1-yl)methyl]-1H-indol-5-yl]-1,3,4,9-tetrahydropyrido[3,4-b]indol-2-yl]propan-1-ol]", "values": [
      {"measurement": "Activity (estrogen receptor modulation, e.g., agonism and antagonism)", "result": "+++ (estrogen receptor antagonism (i) with pIC50 greater than 7.5 and at least a 10% reduction in the E2-normalized signal in the AP assay (antagonist mode); and (ii) no more than 10% increase in E2-normalized signal in the AP assay (agonist mode))"}
    ]},
    {"smiles": "C[C@@H]1Cc2c([nH]c3ccccc23)[C@@H](c2c[nH]c3ncc(CN4CC5CC5C4)cc23)N1CC(C)(C)F", "note": "(stereo partly drawn) [Compound I-61, (1R,3R)-1-[5-(3-azabicyclo[3.1.0]hexan-3-ylmethyl)-1H-pyrrolo[2,3-b]pyridin-3-yl]-2-(2-fluoro-2-methyl-propyl)-3-methyl-1,3,4,9-tetrahydropyrido[3,4-b]indole]", "values": [
      {"measurement": "Activity (estrogen receptor modulation, e.g., agonism and antagonism)", "result": "+ (estrogen receptor agonism having (i) at least 80% increase in the E2-normalized signal in the AP assay (agonist mode) and (ii) no more than 80% reduction in the E2-normalized signal in the AP assay (antagonist mode))"}
    ]},
    {"smiles": "C[C@@H]1Cc2c([nH]c3ccccc23)[C@@H](c2c[nH]c3cc(CNCCCF)ccc23)N1CC(C)(C)F", "note": "[Compound I-8, 3-fluoro-N-[[3-[(1R,3R)-2-(2-fluoro-2-methyl-propyl)-3-methyl-1,3,4,9-tetrahydropyrido[3,4-b]indol-1-yl]-1H-indol-6-yl]methyl]propan-1-amine]", "values": [
      {"measurement": "Activity (estrogen receptor modulation, e.g., agonism and antagonism)", "result": "+ (estrogen receptor agonism having (i) at least 80% increase in the E2-normalized signal in the AP assay (agonist mode) and (ii) no more than 80% reduction in the E2-normalized signal in the AP assay (antagonist mode))"}
    ]},
    {"smiles": "C[C@@H]1Cc2c([nH]c3ccccc23)[C@@H](c2ccc3[nH]c(CN4CC(CF)C4)cc3n2)N1CC(C)(C)F", "note": "[Compound I-70, (1S,3R)-1-[2-[[3-(fluoromethyl)azetidin-1-yl]methyl]-1H-pyrrolo[3,2-b]pyridin-5-yl]-2-(2-fluoro-2-methyl-propyl)-3-methyl-1,3,4,9-tetrahydropyrido[3,4-b]indole]", "values": [
      {"measurement": "Activity (estrogen receptor modulation, e.g., agonism and antagonism)", "result": "+ (estrogen receptor agonism having (i) at least 80% increase in the E2-normalized signal in the AP assay (agonist mode) and (ii) no more than 80% reduction in the E2-normalized signal in the AP assay (antagonist mode))"}
    ]},
    {"smiles": "C[C@@H]1Cc2c([nH]c3ccccc23)[C@@H](c2ccc3[nH]c(CN4CC(C)(F)C4)cc3c2)N1CC(C)(C)F", "note": "[Compound I-102, (1R,3R)-1-[2-[(3-fluoro-3-methyl-azetidin-1-yl)methyl]-1H-indol-5-yl]-2-(2-fluoro-2-methyl-propyl)-3-methyl-1,3,4,9-tetrahydropyrido[3,4-b]indole]", "values": [
      {"measurement": "Activity (estrogen receptor modulation, e.g., agonism and antagonism)", "result": "++ (estrogen receptor antagonism having (i) between 10% and 80% increase in the E2-normalized signal in the AP assay (agonist mode) and (ii) between 10% and 80% reduction in the E2-normalized signal in the AP assay (antagonist mode))"}
    ]}
  ]
}
